Test results published in BindingDB's records for doi:10.1021/jm990336n (Boehringer Ingelheim Pharmaceuticals, 2000).

The compounds below were run against T1, Dimer of Gag-Pol polyprotein [489-587] (Human immunodeficiency virus 1, UniProt P12497) (assay: Protease Inhibition Assay). Details: pH 5.5; 37 °C.
T1 construct: 489-587
Protocol: Sensitivity of HIV-1 protease activity to protease inhibitors was determined by a peptide substrate cleavage assay. Cleavage products and substrate were separated by reversed-phase HPLC on a Perkin-Elmer 3 X 3CR C8 column.

**Q.** With `CC(C)[C@H](NC(=O)c1ccc2ccccc2n1)C(=O)N[C@@H](Cc1ccccc1)[C@H](O)CN1CC[C@@H](OCc2ccncc2)C[C@H]1C(=O)NC(C)(C)C` as the compound, how does the IC50 read?
**A.** 4 nM

**Q.** For `CC(C)(C)NC(=O)[C@@H]1C[C@H](OCc2ccncc2)CCN1C[C@@H](O)[C@H](Cc1ccccc1)NC(=O)CCCc1ccccc1` [(2S,4R)-N-tert-butyl-1-[(2R,3S)-2-hydroxy-4-phenyl-3-(4-phenylbutanamido)butyl]-4-(pyridin-4-ylmethoxy)piperidine-2-carboxamide], which IC50 is on record?
**A.** > 20000 nM

**Q.** With `CC(C)(C)NC(=O)[C@@H]1C[C@H](OCc2ccncc2)CCN1C[C@@H](O)[C@H](Cc1ccccc1)NC(=O)O[C@H]1CCOC1` [(3S)-oxolan-3-yl N-[(2S,3R)-4-[(2S,4R)-2-(tert-butylcarbamoyl)-4-(pyridin-4-ylmethoxy)piperidin-1-yl]-3-hydroxy-1-phenylbutan-2-yl]carbamate] as the compound, how does the IC50 read?
**A.** 260 nM

**Q.** Which IC50 does the source give for `CC(C)CN(C[C@@H](O)[C@H](Cc1ccccc1)NC(=O)O[C@H]1CCOC1)S(=O)(=O)c1ccc(N)cc1` [VX-478] here?
**A.** 2.6 nM
